Assay: intramolecular Trp triplet quenching by Cys (photoinduced electron transfer, contact formation) in full-length measles virus NTAIL single C-W variants; nanosecond transient absorption (289 nm pump, 458 nm probe); tau_CW from 1/tau_CW = 1/tau_obs - 1/tau_0
Conditions: aqueous buffer: 15 mM Tris, 150 mM NaCl, 1 mM TCEP, pH 7.6, N2O-saturated; 0.1 mM; 20.0 °C; scale: us

| Substance | ring closure, rate |
| --- | --- |
| H-GSTTEDKICRAVGPRQAQVSFLHGDQSENELPRLGGKEDRRVKQSRGEARESWRETGPSRASDARAAHLPTGTPLDIDTASESSQDPQDSRRSADALLRLQAMAGISEEQGSDTDTPIVYNDRNLLD-OH | 6.63 |
| H-GSTTEDKISRAVGPRQAQVSFLHGDQCENELPRLGGKEDRRVKQSRGEARESWRETGPSRASDARAAHLPTGTPLDIDTASESSQDPQDSRRSADALLRLQAMAGISEEQGSDTDTPIVYNDRNLLD-OH | 3.1 |
| H-GSTTEDKISRAVGPRQAQVSFLHGDQSENELPRLGGKEDRRVKQSRGEARESWRETGPSRASDARAAHLPTGTPLDIDTASESCQDPQDSRRSADALLRLQAMAGISEEQGSDTDTPIVYNDRNLLD-OH | 3.21 |
| H-GSTTEDKISRAVGPRQAQVSFLHGDQSENELPRLGGKEDRRVKQSRGEARESYRETGPSRASDARAAHLPTGTPLDIDTASESCQDPQDSRRSADALLRLQAMAGISEEQGSDTDTPIVWNDRNLLD-OH | 7.6 |
| H-GSTTEDKISRAVGPRQAQVSFLHGDQSENELPRLGGKEDRRVKQSRGEARESYRETGPSRASDARAAHLPTGTPLDIDTASESSQDPQDCRRSADALLRLQAMAGISEEQGSDTDTPIVWNDRNLLD-OH | 2.76 |

From publication PMC12501004
